pIC50: −log10 of the molar value.
Target: Factor D (Homo sapiens (Human), UniProt P00746)
Assay: Factor D esterolytic assay (Z-Lys-SBzl substrate, DTNB, 405 nm)
Assay type: biochemical
Settings: Z-Lys-SBzl 1.29 mM, pH 7.5, 10% DMSO, tested a minimum of three times, read-out: Measured Ki (IC50) Value for Compounds: IC50
In short: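 Thioester hydrolysis (Z-Lys-SBzl, 1.29 mM) by human Factor D ([…]) detected through DTNB color at 405 nm over 600 sec, minus 690 nm background. Buffer: 100 mM HEPES pH 7.5, 500 mM NaCl, 10% DMSO; optional room-temperature preincubation before substrate. IC50 derived from percent rate inhibition; at least three runs.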

Factor D, sequence (P00746 26-253): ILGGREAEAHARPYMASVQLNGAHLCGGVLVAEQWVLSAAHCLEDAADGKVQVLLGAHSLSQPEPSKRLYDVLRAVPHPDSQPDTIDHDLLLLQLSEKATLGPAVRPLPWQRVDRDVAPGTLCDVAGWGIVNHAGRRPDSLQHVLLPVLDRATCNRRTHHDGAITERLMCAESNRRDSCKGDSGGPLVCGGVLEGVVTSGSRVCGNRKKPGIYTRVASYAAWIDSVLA

Structure (SMILES) | pIC50
NCc1ccccc1-c1cc(COc2ccccc2CC(=O)O)cc2ccoc12 [Compound 243d, 2-(2-((7-(2-(aminomethyl)phenyl)benzofuran-5-yl)methoxy)phenyl)acetic acid] | < 5.00
NCc1cccc(-c2cc(COc3ccc(C(N)=O)cc3CC(=O)O)cc3ccoc23)c1 [Compound 244c, 2-(2-((7-(3-(aminomethyl)phenyl)benzofuran-5-yl)methoxy)-5-carbamoylphenyl)acetic acid] | 5.00 to 6.00
NCc1cccc(-c2cc(NC(=O)[C@@H]3CCCN3CC(=O)O)cc3ccoc23)c1 [Compound 250f, (S)-2-(2-((7-(3-(aminomethyl)phenyl)benzofuran-5-yl)carbamoyl)pyrrolidin-1-yl)acetic acid] | 5.00 to 6.00
COc1c(C(=O)Nc2ccccc2CC(=O)O)cc(-c2ccnc(CN)c2)c2occc12 [Compound 251c, 2-(2-(7-(2-(aminomethyl)pyridin-4-yl)-4-methoxybenzofuran-5-carboxamido)phenyl)acetic acid] | 5.00 to 6.00
NCc1cccc(-c2cc(C(=O)Nc3ccccc3CC(=O)O)nc3ccoc23)c1 [Compound 255c, 2-(2-(7-(3-(aminomethyl)phenyl)furo[3,2-b]pyridine-5-carboxamido)phenyl)acetic acid] | 5.00 to 6.00
Cc1cc2cc(COc3cc(CN)ccc3CC(=O)O)cc(-c3cccc(CN)c3)c2o1 [Compound 257k, 2-(4-(aminomethyl)-2-((7-(3-(aminomethyl)phenyl)-2-methylbenzofuran-5-yl)methoxy)phenyl)acetic acid] | > 6.00
NCc1cccc(-c2cc(COc3cc(F)ccc3CC(=O)O)cc3ccoc23)c1 [Compound 260g, 2-(2-((7-(3-(aminomethyl)phenyl)benzofuran-5-yl)methoxy)-4-fluorophenyl)acetic acid] | > 6.00
NCc1cccc(-c2cc(COc3cc(CC4CC4)ccc3CC(=O)O)cc3ccoc23)c1 [Compound 261c, 2-(2-((7-(3-(aminomethyl)phenyl)benzofuran-5-yl)methoxy)-4-(cyclopropylmethyl)phenyl)acetic acid] | > 6.00
CC(=O)c1ccc(CC(=O)O)c(OCc2cc(-c3cccc(CN)c3)c3occc3c2)c1 [Compound 262c, 2-(4-acetyl-2-((7-(3-(aminomethyl)phenyl)benzofuran-5-yl)methoxy)phenyl)acetic acid] | > 6.00
NCc1cccc(-c2cc(COc3cc(-c4ccccc4)ccc3CC(=O)O)cc3ccoc23)c1 [Compound 263c, 2-(3-((7-(3-(aminomethyl)phenyl)benzofuran-5-yl)methoxy)-[1,1′-biphenyl]-4-yl)acetic acid] | > 6.00
NCc1cccc(-c2cc(COc3c(F)cccc3CC(=O)O)cc3ccoc23)c1 [Compound 264c, 2-(2-((7-(3-(aminomethyl)phenyl)benzofuran-5-yl)methoxy)-3-fluorophenyl)acetic acid] | > 6.00
CCOc1ccc(CC(=O)O)c(OCc2cc(-c3cccc(CN)c3)c3occc3c2)c1 [Compound 265g, 2-(2-((7-(3-(aminomethyl)phenyl)benzofuran-5-yl)methoxy)-4-ethoxyphenyl)acetic acid] | > 6.00

The next lines start with the values.

pIC50 | Structure (SMILES)
> 6.00 | NCc1cccc(-c2cc(COc3ccccc3CC(=O)O)cc3cc(C(F)(F)F)oc23)c1F [Compound 235b, 2-(2-((7-(3-(aminomethyl)-2-fluorophenyl)-2-(trifluoromethyl)benzofuran-5-yl)methoxy)phenyl)acetic acid]
> 6.00 | NCc1cccc(-c2cc(COc3cc(CN)ccc3CC(=O)O)cc3ccoc23)c1 [Compound 236d, 2-(4-(aminomethyl)-2-((7-(3-(aminomethyl)phenyl)benzofuran-5-yl)methoxy)phenyl)acetic acid]
> 6.00 | N#Cc1ccc(CC(=O)O)c(OCc2cc(-c3cccc(CN)c3)c3occc3c2)c1 [Compound 237b, 2-(2-((7-(3-(aminomethyl)phenyl)benzofuran-5-yl)methoxy)-4-cyanophenyl)acetic acid]
> 6.00 | NCc1cccc(-c2cc(COc3cc(C(N)=O)ccc3CC(=O)O)cc3ccoc23)c1 [Compound 238c, 2-(2-((7-(3-(aminomethyl)phenyl)benzofuran-5-yl)methoxy)-4-carbamoylphenyl)acetic acid]
> 6.00 | N#Cc1ccc(OCc2cc(-c3cccc(CN)c3)c3occc3c2)c(CC(=O)O)c1 [Compound 239c, 2-(2-((7-(3-(aminomethyl)phenyl)benzofuran-5-yl)methoxy)-5-cyanophenyl)acetic acid]
> 6.00 | NCc1nccc(-c2cc(COc3ccccc3CC(=O)O)cc3cc(C(F)(F)F)oc23)c1F [Compound 240d, 2-(2-((7-(2-(aminomethyl)-3-fluoropyridin-4-yl)-2-(trifluoromethyl)benzofuran-5-yl)methoxy)phenyl)acetic acid]
> 6.00 | NCc1cccc(-c2cc(C(=O)Nc3ccccc3CC(=O)O)c(F)c3ccoc23)c1 [Compound 241c, 2-(2-(7-(3-(aminomethyl)phenyl)-4-fluorobenzofuran-5-carboxamido)phenyl)acetic acid]
> 6.00 | NCc1cccc(-c2cc(COc3ccccc3CC(=O)O)cc3c(N)noc23)c1F [Compound 245g, 2-(2-((3-amino-7-(3-(aminomethyl)-2-fluorophenyl)benzo[d]isoxazol-5-yl)methoxy)phenyl)acetic acid]
> 6.00 | NCc1cccc(-c2cc(C(=O)Nc3ccccc3CC(=O)O)c(F)c3ccoc23)c1F [Compound 246b, 2-(2-(7-(3-(aminomethyl)-2-fluorophenyl)-4-fluorobenzofuran-5-carboxamido)phenyl)acetic acid]
> 6.00 | NCc1cccc(-c2cc(COc3ccccc3CC(=O)O)cc3ccsc23)c1F [Compound 247b, 2-(2-((7-(3-(aminomethyl)-2-fluorophenyl)benzo[b]thiophen-5-yl)methoxy)phenyl)acetic acid]
> 6.00 | NCc1cccc(-c2cc(COc3ccccc3CC(=O)O)cc3ccoc23)c1O [Compound 248c, 2-(2-((7-(3-(aminomethyl)-2-hydroxyphenyl)benzofuran-5-yl)methoxy)phenyl)acetic acid]
> 6.00 | NCc1cccc(-c2cc(COc3ccc(O)cc3CC(=O)O)cc3ccoc23)c1 [Compound 249f, 2-(2-((7-(3-(aminomethyl)phenyl)benzofuran-5-yl)methoxy)-5-hydroxyphenyl)acetic acid]
> 6.00 | CC(=O)c1cc2cc(COc3ccccc3CC(=O)O)cc(-c3cccc(CN)c3)c2o1 [Compound 252d, 2-(2-((2-acetyl-7-(3-(aminomethyl)phenyl)benzofuran-5-yl)methoxy)phenyl)acetic acid]
> 6.00 | NCc1cccc(-c2cc(COc3ccccc3C(NC(=O)CCc3ccccc3)C(=O)O)cc3ccoc23)c1 (stereo not shown) [Compound 253f, 2-(2-((7-(3-(aminomethyl)phenyl)benzofuran-5-yl)methoxy)phenyl)-2-(3-phenylpropanamido)acetic acid]
> 6.00 | NCc1cccc(-c2cc(COc3ccc(CO)cc3CC(=O)O)cc3ccoc23)c1 [Compound 254c, 2-(2-((7-(3-(aminomethyl)phenyl)benzofuran-5-yl)methoxy)-5-(hydroxymethyl)phenyl)acetic acid]
> 6.00 | NCc1cc(F)cc(-c2cc(COc3ccccc3CC(=O)O)cc3ccoc23)c1F [Compound 256c, 2-(2-((7-(3-(aminomethyl)-2,5-difluorophenyl)benzofuran-5-yl)methoxy)phenyl)acetic acid]

From patent US11370774B2, “Substituted benzofuran, benzopyrrole, benzothiophene, and structurally related complement inhibitors” (BioCryst Pharmaceuticals, Inc., priority 2018, dated 2022)
